Laboratory results: US10550105B2 (Ribon Therapeutics Inc., priority 2018, dated 2020)

Target: PARP7 (Homo sapiens (Human), UniProt Q7Z3E1)
Assay: Enzymatic assay for inhibition of PARP7: TR-FRET displacement of biotinylated Probe A from the TIPARP active site
Type: binding
Conditions: Table A-1
In short: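 Displacement of biotinylated Probe A from TIPARP was measured as the 665/615 nm time-resolved FRET ratio (excitation 320 nm, 90 μs delay) after a further 30 min at 25 °C. Inhibition across compound concentrations was fitted by dose-response regression, with the Hill slope free or fixed at 1 (3-parameter fit).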

PARP7, sequence (Q7Z3E1 whole entry): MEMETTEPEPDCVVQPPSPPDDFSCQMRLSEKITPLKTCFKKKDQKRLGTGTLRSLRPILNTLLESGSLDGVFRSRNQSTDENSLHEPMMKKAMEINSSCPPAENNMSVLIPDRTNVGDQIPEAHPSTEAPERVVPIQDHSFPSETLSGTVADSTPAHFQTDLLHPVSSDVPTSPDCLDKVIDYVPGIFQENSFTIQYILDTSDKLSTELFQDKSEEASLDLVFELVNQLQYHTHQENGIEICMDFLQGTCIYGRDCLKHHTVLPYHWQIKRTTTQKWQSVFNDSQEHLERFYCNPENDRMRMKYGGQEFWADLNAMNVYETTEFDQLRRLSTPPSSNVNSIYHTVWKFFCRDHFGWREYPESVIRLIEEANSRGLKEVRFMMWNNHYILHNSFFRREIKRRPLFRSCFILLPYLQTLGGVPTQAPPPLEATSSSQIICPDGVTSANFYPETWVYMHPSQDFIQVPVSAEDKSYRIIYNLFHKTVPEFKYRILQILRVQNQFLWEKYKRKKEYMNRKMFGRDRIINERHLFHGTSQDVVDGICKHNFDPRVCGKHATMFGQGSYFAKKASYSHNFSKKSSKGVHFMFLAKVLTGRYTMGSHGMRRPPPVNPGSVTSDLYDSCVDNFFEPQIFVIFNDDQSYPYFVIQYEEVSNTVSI

Structure (SMILES) | IC50 [nM]
N#Cc1ccc(N2CCN(C(=O)CCOC[C@H]3c4ncccc4CN3c3cn[nH]c(=O)c3Cl)CC2)nc1 [Example 432, (R)-6-(4-(3-((6-(5-Chloro-6-oxo-1,6-dihydropyridazin-4-yl)-6,7-dihydro-5H-pyrrolo[3,4-b]pyridin-7-yl)methoxy)propanoyl)piperazin-1-yl)nicotinonitrile] | 100 to 1000
COc1c(N2Cc3cccc(OCCO)c3C2)cn[nH]c1=O [Example 184, 5-(4-(2-Hydroxyethoxy)isoindolin-2-yl)-4-methoxypyridazin-3(2H)-one] | ≥ 1000
N#Cc1ccc(N2CCN(C(=O)C[C@H]3CC[C@@H](COc4cn[nH]c(=O)c4Cl)O3)CC2)nc1 [Example 582 Isomer C, 6-(4-[2-[(2R,5S)-5-[[(5-Chloro-6-oxo-1,6-dihydropyridazin-4-yl)oxy]methyl]oxolan-2-yl]acetyl]piperazin-1-yl)pyridine-3-carbonitrile] | ≥ 1000
CO[C@H]1C[C@@H](COCCC(=O)N2CCN(c3ccc(C#N)cn3)CC2)N(c2cn[nH]c(=O)c2C(F)(F)F)C1 [Example 122, 6-[4-(3-[[(2S,4S)-4-methoxy-1-[6-oxo-5-(trifluoromethyl)-1,6-dihydropyridazin-4-yl]pyrrolidin-2-yl]methoxy]propanoyl)piperazin-1-yl]pyridine-3-carbonitrile] | < 100
O=c1[nH]ncc(OCCOCCS(=O)(=O)N2CCN(c3ncc(C(F)(F)F)cn3)CC2)c1C(F)(F)F [Example 724, 4-(Trifluoromethyl)-5-(2-(2-((4-(5-(trifluoromethyl)pyrimidin-2-yl)piperazin-1-yl)sulfonyl)ethoxy)ethoxy)pyridazin-3(2H)-one] | < 100
C[C@H](COCCC(=O)N1CCN(c2ncc(Cl)cn2)CC1)Nc1cn[nH]c(=O)c1C(F)(F)F [Example 556, 5-[[(2R)-1-[3-[4-(5-Chloropyrimidin-2-yl)piperazin-1-yl]-3-oxopropoxy]propan-2-yl]amino]-4-(trifluoromethyl)-2,3-dihydropyridazin-3-one] | 100 to 1000
N#Cc1ccc(N2CCN(C(=O)CCOC[C@@H](Nc3cn[nH]c(=O)c3C(F)(F)F)c3ccncc3)CC2)nc1 [Example 527A, 6-(4-[3-[(2S)-2-[[6-Oxo-5-(trifluoromethyl)-1,6-dihydropyridazin-4-yl]amino]-2-(pyridin-4-yl)ethoxy]propanoyl]piperazin-1-yl)pyridine-3-carbonitrile] | < 100
CN1CCC(COc2cc3c(cc2F)CN(c2cn[nH]c(=O)c2C(F)(F)F)C3)CC1 [Example 22, 5-[5-fluoro-6-[(1-methylpiperidin-4-yl)methoxy]-2,3-dihydro-1H-isoindol-2-yl]-4-(trifluoromethyl)-2,3-dihydropyridazin-3-one] | < 100

Further lines, results first:

IC50 [nM] | Structure (SMILES)
< 100 | COC[C@@H](COCCC(=O)N1CCN(c2ncc(C#N)s2)CC1)Nc1cn[nH]c(=O)c1C(F)(F)F [Example 713, (S)-2-(4-(3-(3-Methoxy-2-((6-oxo-5-(trifluoromethyl)-1,6-dihydropyridazin-4-yl)amino)propoxy)propanoyl)piperazin-1-yl)thiazole-5-carbonitrile]
< 100 | O=c1[nH]ncc(N2Cc3ccc(OC4CCNCC4)cc3C2)c1C(F)(F)F [Example 150, 5-[5-(Piperidin-4-yloxy)-2,3-dihydro-1H-isoindol-2-yl]-4-(trifluoromethyl)-2,3-dihydropyridazin-3-one]
< 100 | CC(=O)N1CCC(Oc2cccc3c2CN(c2cn[nH]c(=O)c2C(F)(F)F)C3)CC1 [Example 225, 5-(4-((1-Acetylpiperidin-4-yl)oxy)isoindolin-2-yl)-4-(trifluoromethyl)pyridazin-3(2H)-one]
< 100 | O=c1[nH]ncc(N2Cc3cc(OCc4cccnc4)cnc3C2)c1C(F)(F)F [Example 336, 5-(3-(Pyridin-3-ylmethoxy)-5,7-dihydro-6H-pyrrolo[3,4-b]pyridin-6-yl)-4-(trifluoromethyl)pyridazin-3(2H)-one]
